# Data published in US8802700B2 (Vertex Pharmaceuticals Incorporated, priority 2010, dated 2014).
# Molecular target: T1, ΔF508-CFTR (Homo sapiens, UniProt P13569, DEL508-508)
# T1 construct: expressed in transfected cells
# Assay: Membrane potential optical assay (FRET voltage-sensor dyes, VIPR), identification of potentiator compounds
# Type: cell-based
# Settings: Table 3; assay not given
# Outline: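 Potentiator screen measured membrane potential via FRET between CC2-DMPE donor and DiSBAC2(3), read on VIPR II. Compound went in with the first addition of chloride-free gluconate bath; cells were ΔF508-CFTR-expressing NIH3T3 mouse fibroblasts, temperature-corrected at 27 °C for 24 h.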
# T1 sequence (P13569 with tags, fused parts or gaps DEL508-508): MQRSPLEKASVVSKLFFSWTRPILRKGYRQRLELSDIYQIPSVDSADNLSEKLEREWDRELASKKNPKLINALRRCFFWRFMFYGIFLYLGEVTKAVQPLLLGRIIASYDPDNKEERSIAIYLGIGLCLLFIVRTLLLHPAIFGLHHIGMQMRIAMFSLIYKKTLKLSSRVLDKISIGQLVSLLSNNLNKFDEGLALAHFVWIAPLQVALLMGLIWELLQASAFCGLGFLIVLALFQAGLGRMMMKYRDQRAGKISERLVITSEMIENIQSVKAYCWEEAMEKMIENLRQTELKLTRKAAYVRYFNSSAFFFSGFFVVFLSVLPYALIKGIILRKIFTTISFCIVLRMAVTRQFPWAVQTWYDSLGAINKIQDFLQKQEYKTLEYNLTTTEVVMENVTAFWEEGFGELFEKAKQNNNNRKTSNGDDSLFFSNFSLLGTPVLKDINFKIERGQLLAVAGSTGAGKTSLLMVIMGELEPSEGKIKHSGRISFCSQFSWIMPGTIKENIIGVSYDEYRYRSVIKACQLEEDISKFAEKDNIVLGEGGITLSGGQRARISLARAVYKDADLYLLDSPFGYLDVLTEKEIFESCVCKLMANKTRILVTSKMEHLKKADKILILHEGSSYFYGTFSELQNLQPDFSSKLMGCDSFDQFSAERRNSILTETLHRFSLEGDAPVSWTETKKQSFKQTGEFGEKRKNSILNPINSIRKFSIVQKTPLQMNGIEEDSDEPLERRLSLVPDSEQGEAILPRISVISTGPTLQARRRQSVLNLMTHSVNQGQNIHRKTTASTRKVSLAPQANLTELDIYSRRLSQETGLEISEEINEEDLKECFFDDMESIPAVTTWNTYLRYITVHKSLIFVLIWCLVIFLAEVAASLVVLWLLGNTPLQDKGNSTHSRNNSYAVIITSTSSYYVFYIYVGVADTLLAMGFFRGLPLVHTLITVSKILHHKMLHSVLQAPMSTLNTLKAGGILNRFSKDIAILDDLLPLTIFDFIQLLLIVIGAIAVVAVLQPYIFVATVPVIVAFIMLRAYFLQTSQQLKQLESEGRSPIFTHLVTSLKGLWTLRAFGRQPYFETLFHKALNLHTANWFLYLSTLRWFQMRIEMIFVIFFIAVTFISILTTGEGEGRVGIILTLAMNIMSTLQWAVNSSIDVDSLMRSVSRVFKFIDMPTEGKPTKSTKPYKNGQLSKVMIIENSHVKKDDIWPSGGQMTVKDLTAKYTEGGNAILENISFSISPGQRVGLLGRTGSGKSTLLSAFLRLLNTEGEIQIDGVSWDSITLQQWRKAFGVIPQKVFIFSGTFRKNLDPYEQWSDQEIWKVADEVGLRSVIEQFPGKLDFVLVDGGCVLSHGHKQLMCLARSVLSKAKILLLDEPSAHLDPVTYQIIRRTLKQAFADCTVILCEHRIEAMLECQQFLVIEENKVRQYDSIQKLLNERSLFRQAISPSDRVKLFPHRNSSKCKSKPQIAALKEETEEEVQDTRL
row,SMILES,EC50
1,"CCOC(=O)c1cc(NC(=O)c2c[nH]c3ccccc3c2=O)cc2[nH]ccc12 [Compound 145, 6-[(4-oxo-1H-quinolin-3-yl)carbonylamino]-1H-indole-4-carboxylic acid ethyl ester]",< 10 µM

# Same assay, conditions: Table 3; assay not given; read-out: % Activity (% Efficacy, relative efficacy)
row,SMILES,Emax
1,"CC(=O)N1CCC2(CCN(C(=O)OC(C)(C)C)CC2)c2ccc(NC(=O)c3c[nH]c4ccccc4c3=O)cc21 [Compound 334, 7′-[(4-oxo-1H-quinolin-3-ylcarbonyl)amino]-spiro[piperidine-4,4′(1′H)-1-acetyl-quinoline], 2′,3′-dihydro-carboxylic acid tert-butyl ester]",25 to 100%
2,"O=C(Nc1ccccc1Oc1ccc(Cl)cc1Cl)c1c[nH]c2ccccc2c1=O [Compound 245, N-[2-(2,4-dichlorophenoxy)phenyl]-4-oxo-1H-quinoline-3-carboxamide]",25 to 100%
3,"O=C(Nc1ccc(C2CCCCC2)c(O)c1)c1c[nH]c2ccc(F)cc2c1=O [Compound 651, N-(4-cyclohexyl-3-hydroxy-phenyl)-6-fluoro-4-oxo-1H-quinoline-3-carboxamide]",25 to 100%
4,"CC(C)c1ccc(NC(=O)c2c[nH]c3ccccc3c2=O)cc1N(C)C [Compound 117, N-(3-dimethylamino-4-isopropyl-phenyl)-4-oxo-1H-quinoline-3-carboxamide]",25 to 100%
5,"Cc1ccc2c(=O)c(C(=O)Nc3cc4[nH]ccc4cc3C(C)(C)C)c[nH]c2c1 [Compound 704, 7-methyl-4-oxo-N-(5-tert-butyl-1H-indol-6-yl)-1H-quinoline-3-carboxamide]",25 to 100%
6,"O=C(Nc1ccccc1Cl)c1c[nH]c2ccccc2c1=O [Compound 330, N-(2-chlorophenyl)-4-oxo-1H-quinoline-3-carboxamide]",25 to 100%
7,"Cc1ccc(C(N)=O)c(NC(=O)c2c[nH]c3ccccc3c2=O)c1 [Compound 335, N-(2-carbamoyl-5-methyl-phenyl)-4-oxo-1H-quinoline-3-carboxamide]",< 25%
8,"O=C(Nc1cccc(C(F)(F)F)c1)c1c[nH]c2ccccc2c1=O [Compound 164, 4-oxo-N-[3-(trifluoromethyl)phenyl]-1H-quinoline-3-carboxamide]",25 to 100%
9,"CC(C)(C)c1cc2cc[nH]c2cc1NC(=O)c1c[nH]c2cc(OC(F)(F)F)ccc2c1=O [Compound 632, 4-oxo-N-(5-tert-butyl-1H-indol-6-yl)-7-(trifluoromethoxy)-1H-quinoline-3-carboxamide]",25 to 100%
10,"O=C(Nc1ccccc1-c1ccc(CO)cc1)c1c[nH]c2ccccc2c1=O [Compound 302, N-[2-[4-(hydroxymethyl)phenyl]phenyl]-4-oxo-1H-quinoline-3-carboxamide]",25 to 100%
11,"CC(C)(C)c1cc(C(F)(F)F)c(NC(=O)c2c[nH]c3ccc(F)cc3c2=O)cc1O [Compound 509, 6-fluoro-N-[5-hydroxy-4-tert-butyl-2-(trifluoromethyl)phenyl]-4-oxo-1H-quinoline-3-carboxamide]",25 to 100%
12,"O=C(Nc1ccccc1Cc1ccccc1)c1c[nH]c2ccccc2c1=O [Compound 265, N-(2-benzylphenyl)-4-oxo-1H-quinoline-3-carboxamide]",25 to 100%
13,"NCc1ccccc1-c1ccc(NC(=O)c2c[nH]c3ccccc3c2=O)cc1 [Compound 86, N-[4-[2-(aminomethyl)phenyl]phenyl]-4-oxo-1H-quinoline-3-carboxamide]",25 to 100%
14,"O=C(Nc1ccc(S(=O)(=O)Nc2ccccn2)cc1)c1c[nH]c2ccccc2c1=O [Compound 21, 4-oxo-N-[4-(2-pyridylsulfamoyl)phenyl]-1H-quinoline-3-carboxamide]",< 25%
15,"Cc1ccc(C(F)(F)F)cc1NC(=O)c1c[nH]c2ccccc2c1=O [Compound 577, N-[2-methyl-5-(trifluoromethyl)phenyl]-4-oxo-1H-quinoline-3-carboxamide]",25 to 100%
16,"O=C(Nc1ccc2cc[nH]c2c1)c1c[nH]c2cccc(O)c2c1=O [Compound 116, 5-hydroxy-N-(1H-indol-6-yl)-4-oxo-1H-quinoline-3-carboxamide]",25 to 100%
17,"CCOc1ccccc1-c1ccc(N)cc1NC(=O)c1c[nH]c2ccccc2c1=O [Compound 393, N-[5-amino-2-(2-ethoxyphenyl)-phenyl]-4-oxo-1H-quinoline-3-carboxamide]",25 to 100%
18,"O=C(Nc1ccccc1-c1cc2ccccc2s1)c1c[nH]c2ccccc2c1=O [Compound 172, N-(2-(benzo[b]thiophen-2-yl)phenyl)-1,4-dihydro-4-oxoquinoline-3-carboxamide]",25 to 100%
19,"O=C(Nc1ccc(N2CCCCC2)cc1C(F)(F)F)c1c[nH]c2ccccc2c1=O [Compound 686, 4-oxo-N-[4-(1-piperidyl)-2-(trifluoromethyl)phenyl]-1H-quinoline-3-carboxamide]",25 to 100%
20,"O=C(Nc1ccc2cc[nH]c2c1)c1c[nH]c2ccccc2c1=O [Compound 33, N-(1H-indol-6-yl)-4-oxo-1H-quinoline-3-carboxamide]",25 to 100%
21,"CCN(CC)c1ccc(NC(=O)c2c[nH]c3ccccc3c2=O)c(C)c1 [Compound 82, N-(4-diethylamino-2-methyl-phenyl)-4-oxo-1H-quinoline-3-carboxamide]",25 to 100%

row,SMILES,Emax
1,"COc1ccc2c(=O)c(C(=O)Nc3cc(O)c(C(C)(C)C)cc3C(C)(C)C)c[nH]c2c1 [Compound 583, N-(5-hydroxy-2,4-ditert-butyl-phenyl)-7-methoxy-4-oxo-1H-quinoline-3-carboxamide]",25 to 100%
2,"COc1ccc2[nH]cc(C(=O)Nc3ccc(N4CCC[C@@H]4C)cc3C(F)(F)F)c(=O)c2c1 [Compound 601, (S)-6-methoxy-N-(4-(2-methylpyrrolidin-1-yl)-2-(trifluoromethyl)phenyl)-4-oxo-1,4-dihydroquinoline-3-carboxamide]",25 to 100%
3,"C[C@H]1CCCCN1c1ccc(NC(=O)c2c[nH]c3ccccc3c2=O)c(C(F)(F)F)c1 [Compound 713, (S)-N-(4-(2-methylpiperidin-1-yl)-2-(trifluoromethyl)phenyl)-4-oxo-1,4-dihydroquinoline-3-carboxamide]",> 100%
4,"CC(C)c1ccc(NC(=O)c2c[nH]c3ccc(F)cc3c2=O)c(C(F)(F)F)c1 [Compound 557, 6-fluoro-N-[4-isopropyl-2-(trifluoromethyl)phenyl]-4-oxo-1H-quinoline-3-carboxamide]",25 to 100%
5,"COc1ccc(NC(=O)c2c[nH]c3ccccc3c2=O)c(OC)n1 [Compound 193, N-(2,6-dimethoxy-3-pyridyl)-4-oxo-1H-quinoline-3-carboxamide]",25 to 100%
6,"CN(C)[C@H]1CCN(c2ccc(NC(=O)c3c[nH]c4ccccc4c3=O)c(C(F)(F)F)c2)C1 [Compound 513, (S)-N-(4-(3-(dimethylamino)pyrrolidin-1-yl)-2-(trifluoromethyl)phenyl)-4-oxo-1,4-dihydroquinoline-3-carboxamide]",25 to 100%
7,"Cc1cccc2c(=O)c(C(=O)Nc3cc(O)c(C(C)(C)C)cc3F)c[nH]c12 [Compound 625, N-(2-fluoro-5-hydroxy-4-tert-butyl-phenyl)-8-methyl-4-oxo-1H-quinoline-3-carboxamide]",< 25%
8,"COc1ccc(C(C)(C)C)cc1NC(=O)c1c[nH]c2ccccc2c1=O [Compound 211, N-(2-methoxy-5-tert-butyl-phenyl)-4-oxo-1H-quinoline-3-carboxamide]",25 to 100%
9,"CC(C)c1ccc(NC(=O)c2c[nH]c3cc(F)c(F)cc3c2=O)c(C(F)(F)F)c1 [Compound 589, 6,7-difluoro-N-[4-isopropyl-2-(trifluoromethyl)phenyl]-4-oxo-1H-quinoline-3-carboxamide]",25 to 100%
10,"Cc1ccc(NC(=O)c2c[nH]c3ccccc3c2=O)c(F)c1 [Compound 289, N-(2-fluoro-4-methyl-phenyl)-4-oxo-1H-quinoline-3-carboxamide]",25 to 100%
11,"Cc1ccc2c(=O)c(C(=O)Nc3cc(O)c(C4(C)CCCCC4)cc3F)c[nH]c2c1 [Compound 499, N-[2-fluoro-5-hydroxy-4-(1-methylcyclohexyl)-phenyl]-7-methyl-4-oxo-1H-quinoline-3-carboxamide]",25 to 100%
12,"COC(=O)Nc1ccc(C(C)C)c(NC(=O)c2c[nH]c3ccccc3c2=O)c1 [Compound 239, [4-isopropyl-3-[(4-oxo-1H-quinolin-3-yl)carbonylamino]phenyl]aminoformic acid methyl ester]",25 to 100%
13,"CCOC(=O)c1cc(NC(=O)c2c[nH]c3ccccc3c2=O)cc2[nH]ccc12 [Compound 145, 6-[(4-oxo-1H-quinolin-3-yl)carbonylamino]-1H-indole-4-carboxylic acid ethyl ester]",25 to 100%
14,"Cc1ccc(-c2ccccc2NC(=O)c2c[nH]c3ccccc3c2=O)cc1C [Compound 261, N-[2-(3,4-dimethylphenyl)phenyl]-4-oxo-1H-quinoline-3-carboxamide]",25 to 100%
15,"CN(C)CCS(=O)(=O)Nc1cc(NC(=O)c2c[nH]c3ccccc3c2=O)cc(C(F)(F)F)c1 [Compound 359, N-[3-(2-dimethylaminoethylsulfonylamino)-5-(trifluoromethyl)phenyl]-4-oxo-1H-quinoline-3-carboxamide]",25 to 100%
16,"O=C(Nc1ccc(OC(F)F)cc1)c1c[nH]c2ccccc2c1=O [Compound 360, N-[4-(difluoromethoxy)phenyl]-4-oxo-1H-quinoline-3-carboxamide]",25 to 100%
17,"COCCOCC(C)(C)c1ccc(NC(=O)c2c[nH]c3ccccc3c2=O)cc1O [Compound 126, N-[3-hydroxy-4-[2-(2-methoxyethoxy)-1,1-dimethyl-ethyl]-phenyl]-4-oxo-1H-quinoline-3-carboxamide]",25 to 100%
18,"Cc1c[nH]c2cc(NC(=O)c3c[nH]c4ccccc4c3=O)ccc12 [Compound 113, N-(3-methyl-1H-indol-6-yl)-4-oxo-1H-quinoline-3-carboxamide]",25 to 100%
19,"CC(C)(C)c1cc2cc[nH]c2cc1NC(=O)c1c[nH]c2ccccc2c1=O [Compound 381, 4-oxo-N-(5-tert-butyl-1H-indol-6-yl)-1H-quinoline-3-carboxamide]",25 to 100%
20,"CN(C)[C@@H]1CCN(c2ccc(NC(=O)c3c[nH]c4ccccc4c3=O)c(C(F)(F)F)c2)C1 [Compound 534, (R)-N-(4-(3-(dimethylamino)pyrrolidin-1-yl)-2-(trifluoromethyl)phenyl)-4-oxo-1,4-dihydroquinoline-3-carboxamide]",25 to 100%
